Results as given in patent publication US11396506B2, “Amino acid compounds with unbranched linkers and methods of use” (Pliant Therapeutics, Inc., priority 2018, dated 2022).

target: recombinant human integrin αVβ6 (Homo sapiens (Human), UniProt P06756+P18564); assay: Solid phase integrin αVβ6 binding assay; details: recombinant TGFβ1 LAP as ligand, values given as ranges, read-out: αVβ6 Inhibition IC50 (nM) - range
Description: Example B1—Solid Phase Integrin αVβ6 Binding Assay
Microplates were coated with recombinant human integrin αVβ6 (2 μg/mL) in PBS (100 μL/well 25 OC, overnight). The coating solution was removed, washed with wash buffer (0.05% Tween 20; 0.5 mM MnCl2; in 1×TBS). Plate was blocked with 200 μL/well of Block Buffer (1% BSA; 5% sucrose; 0.5 mM MnCl2; in 1×TBS) at 37° C. for 2 h. Dilutions of testing compounds and recombinant TGFβ1 LAP (0.67 μg/mL) in binding buffer (0.05% BSA; 2.5% sucrose; 0.5 mM MnCl2; in 1×TBS) were added. The plate was incubated for 2 hours at 25° C., washed, and incubated for 1 hour with Biotin-Anti-hLAP. Bound antibody was detected by peroxidase-conjugated streptavidin. The IC50 values for testing compounds were calculated by a four-parameter logistic regression.
The compounds tested were compound samples prepared according to procedures described in the Synthetic Examples section, with the stereochemical purity as indicated in the Examples.

Chain of recombinant human integrin αVβ6 (P06756 31-992): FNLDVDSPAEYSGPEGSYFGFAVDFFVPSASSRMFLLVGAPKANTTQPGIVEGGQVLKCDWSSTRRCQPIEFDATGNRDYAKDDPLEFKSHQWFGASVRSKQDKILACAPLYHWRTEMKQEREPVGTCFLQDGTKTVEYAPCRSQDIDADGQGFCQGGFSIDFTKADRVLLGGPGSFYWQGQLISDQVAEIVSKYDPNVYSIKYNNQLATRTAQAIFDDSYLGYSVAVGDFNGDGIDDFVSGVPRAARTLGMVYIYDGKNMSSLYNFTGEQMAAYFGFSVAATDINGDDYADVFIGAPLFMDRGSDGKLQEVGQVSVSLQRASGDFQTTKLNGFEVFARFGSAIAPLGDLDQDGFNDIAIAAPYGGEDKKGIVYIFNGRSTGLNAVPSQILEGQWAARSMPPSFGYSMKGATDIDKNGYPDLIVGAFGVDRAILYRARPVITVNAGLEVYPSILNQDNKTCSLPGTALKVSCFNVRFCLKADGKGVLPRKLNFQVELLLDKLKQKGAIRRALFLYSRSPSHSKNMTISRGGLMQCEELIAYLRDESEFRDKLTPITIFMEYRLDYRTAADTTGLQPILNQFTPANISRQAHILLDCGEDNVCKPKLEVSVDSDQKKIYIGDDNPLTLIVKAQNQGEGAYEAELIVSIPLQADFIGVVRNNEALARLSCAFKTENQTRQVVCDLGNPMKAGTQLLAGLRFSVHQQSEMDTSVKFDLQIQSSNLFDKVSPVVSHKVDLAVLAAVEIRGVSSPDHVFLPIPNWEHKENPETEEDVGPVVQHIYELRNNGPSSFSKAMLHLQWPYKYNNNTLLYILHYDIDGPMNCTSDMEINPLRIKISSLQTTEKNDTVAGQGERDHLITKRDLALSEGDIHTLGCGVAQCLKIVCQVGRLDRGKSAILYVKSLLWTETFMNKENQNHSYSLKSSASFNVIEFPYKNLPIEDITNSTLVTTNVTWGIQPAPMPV
Chain of recombinant human integrin αVβ6 (P18564 22-707): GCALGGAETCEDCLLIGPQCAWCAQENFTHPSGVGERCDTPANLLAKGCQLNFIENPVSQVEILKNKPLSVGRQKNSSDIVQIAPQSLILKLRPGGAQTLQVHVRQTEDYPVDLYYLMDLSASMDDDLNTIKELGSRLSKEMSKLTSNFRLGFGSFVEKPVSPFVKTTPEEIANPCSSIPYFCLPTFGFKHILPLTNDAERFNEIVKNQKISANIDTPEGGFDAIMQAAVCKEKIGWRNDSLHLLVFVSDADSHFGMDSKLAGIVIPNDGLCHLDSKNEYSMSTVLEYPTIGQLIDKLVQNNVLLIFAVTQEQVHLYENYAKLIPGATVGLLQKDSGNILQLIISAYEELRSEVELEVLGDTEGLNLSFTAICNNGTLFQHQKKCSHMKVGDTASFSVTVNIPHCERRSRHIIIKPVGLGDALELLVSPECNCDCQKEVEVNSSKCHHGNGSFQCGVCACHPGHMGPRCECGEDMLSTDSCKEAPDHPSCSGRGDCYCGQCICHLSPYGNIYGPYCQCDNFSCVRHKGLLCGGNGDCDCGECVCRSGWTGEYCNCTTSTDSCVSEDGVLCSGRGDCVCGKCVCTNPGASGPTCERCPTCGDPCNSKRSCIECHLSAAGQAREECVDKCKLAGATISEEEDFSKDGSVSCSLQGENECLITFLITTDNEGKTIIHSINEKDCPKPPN

SMILES	IC50
CS(=O)(=O)N1CCC[C@@H](C(=O)N[C@@H](CCCCCCCc2ccc3c(n2)NCCC3)C(=O)O)C1 (mixture of isomers) [Compound 37, (S)-2-((R)-1-(methylsulfonyl)piperidine-3-carboxamido)-9-(5,6,7,8-tetrahydro-1,8-naphthyridin-2-yl)nonanoic acid and (S)-2-((S)-1-(methylsulfonyl)piperidine-3-carboxamido)-9-(5,6,7,8-tetrahydro-1,8-naphthyridin-2-yl)nonanoic Acid]	< 50 nM
CS(=O)(=O)N1CCC(C(=O)N[C@@H](CCCCCCCc2ccc3c(n2)NCCC3)C(=O)O)CC1 [Compound 39, (S)-2-(1-(methylsulfonyl)piperidine-4-carboxamido)-9-(5,6,7,8-tetrahydro-1,8-naphthyridin-2-yl)nonanoic Acid]	< 50 nM
O=C(N[C@@H](CCCCCCCc1ccc2c(n1)NCCC2)C(=O)O)C1CCNCC1 [Compound 34, (S)-2-(piperidine-4-carboxamido)-9-(5,6,7,8-tetrahydro-1,8-naphthyridin-2-yl)nonanoic Acid]	50 to 250 nM
CC(=O)N1CCC(C(=O)N[C@@H](CCCCCCCc2ccc3c(n2)NCCC3)C(=O)O)CC1 [Compound 36, (S)-2-(1-acetylpiperidine-4-carboxamido)-9-(5,6,7,8-tetrahydro-1,8-naphthyridin-2-yl)nonanoic Acid]	50 to 250 nM
CS(=O)(=O)CCCC(=O)N[C@@H](CCCCCCCc1ccc2c(n1)NCCC2)C(=O)O [Compound 24, (S)-2-(4-(methylsulfonyl)butanamido)-9-(5,6,7,8-tetrahydro-1,8-naphthyridin-2-yl)nonanoic Acid]	251 to 1000 nM
O=C(O)[C@H](CCCCCCCc1ccc2c(n1)NCCC2)NC(=O)[C@H]1CCOc2ccccc21 (mixture of isomers) [Compound 46, (S)-2-((S)-chromane-4-carboxamido)-9-(5,6,7,8-tetrahydro-1,8-naphthyridin-2-yl)nonanoic Acid and (S)-2-((R)-chromane-4-carboxamido)-9-(5,6,7,8-tetrahydro-1,8-naphthyridin-2-yl)nonanoic Acid]	50 to 250 nM
CC(C)(C)OC(=O)N1CC(C)(OC(=O)N[C@@H](CCCCCCCc2ccc3c(n2)NCCC3)C(=O)O)C1 [Compound 32, (S)-2-((((1-(tert-butoxycarbonyl)-3-methylazetidin-3-yl)oxy)carbonyl)amino)-9-(5,6,7,8-tetrahydro-1,8-naphthyridin-2-yl)nonanoic Acid]	< 50 nM
O=C(O)[C@H](CCCCCCCc1ccc2c(n1)NCCC2)NC(=O)C12CC(C1)C2 [Compound 45, (S)-2-(bicyclo[1.1.1]pentane-1-carboxamido)-9-(5,6,7,8-tetrahydro-1,8-naphthyridin-2-yl)nonanoic Acid]	< 50 nM
O=C(O)[C@H](CCCCCCCc1ccc2c(n1)NCCC2)NC(=O)C1(C(F)(F)F)CCOCC1 [Compound 42, (S)-9-(5,6,7,8-tetrahydro-1,8-naphthyridin-2-yl)-2-(4-(trifluoromethyl)tetrahydro-2H-pyran-4-carboxamido)nonanoic Acid]	< 50 nM
O=C(N[C@@H](CCCCCCCc1ccc2c(n1)NCCC2)C(=O)O)C1CC2CCC(C1)O2 (stereo partly drawn) [Compound 43, (S)-2-((1R,3s,5S)-8-oxabicyclo[3.2.1]octane-3-carboxamido)-9-(5,6,7,8-tetrahydro-1,8-naphthyridin-2-yl)nonanoic acid and (S)-2-((1R,3r,5S)-8-oxabicyclo[3.2.1]octane-3-carboxamido)-9-(5,6,7,8-tetrahydro-1,8-naphthyridin-2-yl)nonanoic Acid]	< 50 nM
C[C@@]1(C(=O)N[C@@H](CCCCCCCc2ccc3c(n2)NCCC3)C(=O)O)CCCOC1 (mixture of isomers) [Compound 47, (S)-2-((R)-3-methyltetrahydro-2H-pyran-3-carboxamido)-9-(5,6,7,8-tetrahydro-1,8-naphthyridin-2-yl)nonanoic Acid and (S)-2-((S)-3-methyltetrahydro-2H-pyran-3-carboxamido)-9-(5,6,7,8-tetrahydro-1,8-naphthyridin-2-yl)nonanoic Acid]	50 to 250 nM
CC1(C(=O)N[C@@H](CCCCCCCc2ccc3c(n2)NCCC3)C(=O)O)CCCCC1 [Compound 44, (S)-2-(1-methylcyclohexanecarboxamido)-9-(5,6,7,8-tetrahydro-1,8-naphthyridin-2-yl)nonanoic Acid]	< 50 nM
NS(=O)(=O)CCC(=O)N[C@@H](CCCCCCCc1ccc2c(n1)NCCC2)C(=O)O [Compound 38, (S)-2-(3-sulfamoylpropanamido)-9-(5,6,7,8-tetrahydro-1,8-naphthyridin-2-yl)nonanoic Acid]	251 to 1000 nM
COCCCC(=O)N[C@@H](CCCCCCCc1ccc2c(n1)NCCC2)C(=O)O [Compound 30, (S)-2-(4-methoxybutanamido)-9-(5,6,7,8-tetrahydro-1,8-naphthyridin-2-yl)nonanoic Acid]	251 to 1000 nM
CC1(C(=O)N[C@@H](CCCCCCCc2ccc3c(n2)NCCC3)C(=O)O)CCOCC1 [Compound 8, (S)-2-(4-methyltetrahydro-2H-pyran-4-carboxamido)-9-(5,6,7,8-tetrahydro-1,8-naphthyridin-2-yl)nonanoic Acid]	< 50 nM
